In patent publication US20120101110A1, “Diaza-spiro[5.5]undecanes” (priority 2010, published 2012) one finds inhibition and Ki data, which are given here for 28 molecules.

One assay deals with T1, human orexin 1 receptors (Homo sapiens, UniProt O43613).
T1 sequence (O43613 1-425): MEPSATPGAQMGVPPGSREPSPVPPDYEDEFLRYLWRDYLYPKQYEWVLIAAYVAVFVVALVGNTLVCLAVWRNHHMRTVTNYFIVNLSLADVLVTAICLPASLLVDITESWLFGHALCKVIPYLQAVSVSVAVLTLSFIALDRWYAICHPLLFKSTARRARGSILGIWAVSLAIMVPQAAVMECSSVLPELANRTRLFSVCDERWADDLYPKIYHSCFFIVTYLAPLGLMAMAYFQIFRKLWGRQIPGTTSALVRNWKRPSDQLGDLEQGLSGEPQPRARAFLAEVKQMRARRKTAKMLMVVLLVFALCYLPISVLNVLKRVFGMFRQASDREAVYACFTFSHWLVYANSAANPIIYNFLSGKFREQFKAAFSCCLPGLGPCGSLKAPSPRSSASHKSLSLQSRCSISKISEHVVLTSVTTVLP
Kind of assay: Calcium accumulation in cells (FLIPR), hOx1R. As to conditions: for inhibition at 10 µM: read-out: FLIPR hOx1R % inhibition value.

Another assay deals with T2, human orexin 2 receptors (Homo sapiens, UniProt O43614).
T2 sequence (O43614 1-444): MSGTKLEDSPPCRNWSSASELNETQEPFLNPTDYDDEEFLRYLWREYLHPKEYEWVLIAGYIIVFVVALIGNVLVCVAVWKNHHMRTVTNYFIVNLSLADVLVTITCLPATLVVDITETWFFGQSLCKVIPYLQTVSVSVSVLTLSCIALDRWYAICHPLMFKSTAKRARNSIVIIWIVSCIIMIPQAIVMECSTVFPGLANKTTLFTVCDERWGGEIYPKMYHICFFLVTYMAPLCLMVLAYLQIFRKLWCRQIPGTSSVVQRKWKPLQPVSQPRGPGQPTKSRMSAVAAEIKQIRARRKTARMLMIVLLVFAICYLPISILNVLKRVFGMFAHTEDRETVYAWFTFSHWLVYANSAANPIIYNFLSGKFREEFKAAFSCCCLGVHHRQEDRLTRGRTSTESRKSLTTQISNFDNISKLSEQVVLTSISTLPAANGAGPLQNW
Kind of assay: Calcium accumulation in cells (FLIPR), hOx2R. It is filed as cell-based. As to conditions: cells expressing human orexin 2 receptor; inhibition of orexin A-induced calcium accumulation; Cheng and Prusoff correction.

As a reminder, the inhibition is the share of the control response that was lost under treatment. What is called Ki is a measure of affinity in units of concentration, obtained from inhibition or displacement.

On to `COc1cncc(N2CCC3(CCCN(Cc4c[nH]c5ncccc45)C3=O)CC2)n1` [Example 8, 2-((1H-pyrrolo[2,3-b]pyridin-3-yl)methyl)-9-(6-methoxypyrazin-2-yl)-2,9-diazaspiro[5.5]undecan-1-one], for which the inhibition at 10 µM at human orexin 1 receptors was found to be 31%. The Ki on human orexin 2 receptors turned out to be 276 nM.
On to `N#Cc1ccc(N2CCC3(CCCC(=O)N3Cc3cccc4[nH]ccc34)CC2)nc1` [Example 14, 6-(1-((1H-indol-4-yl)methyl)-2-oxo-1,9-diazaspiro[5.5]undecan-9-yl)nicotinonitrile], for which the inhibition at 10 µM on human orexin 1 receptors worked out at 13%. The Ki at human orexin 2 receptors was 200 nM.
For `Cc1ccnc(N2CCC3(CCCC(=O)N3Cc3ccccc3-n3nccn3)CC2)n1` [Example 16, 1-(2-(2H-1,2,3-triazol-2-yl)benzyl)-9-(4-methylpyrimidin-2-yl)-1,9-diazaspiro[5.5]undecan-2-one], the inhibition at 10 µM on human orexin 1 receptors came out at 31%. For the same molecule, the Ki on human orexin 2 receptors is 270 nM.
For the molecule `Cc1nnc(N2CCC3(CCCN(Cc4c[nH]c5ccccc45)C3=O)CC2)o1` [Example 17, 2-((1H-indol-3-yl)methyl)-9-(5-methyl-1,3,4-oxadiazol-2-yl)-2,9-diazaspiro[5.5]undecan-1-one], the inhibition at 10 µM at human orexin 1 receptors was 12%.
In the case of `O=C1N(Cc2c[nH]c3ncccc23)CCCC12CCN(c1cncc(Cl)n1)CC2` [Example 18, 2-((1H-pyrrolo[2,3-b]pyridin-3-yl)methyl)-9-(6-chloropyrazin-2-yl)-2,9-diazaspiro[5.5]undecan-1-one], the Ki at human orexin 1 receptors is 3200 nM; at human orexin 2 receptors, 123 nM.
Turning to `Cc1cncc(N2CCC3(CCCN(Cc4c[nH]c5ncccc45)C3=O)CC2)n1` [Example 19, 2-((1H-pyrrolo[2,3-b]pyridin-3-yl)methyl)-9-(6-methylpyrazin-2-yl)-2,9-diazaspiro[5.5]undecan-1-one], the inhibition at 10 µM at human orexin 1 receptors worked out at 31%. On human orexin 2 receptors, the Ki amounted to 147 nM.
For the molecule `Cc1cc(C)nc(N2CCC3(CCCN(Cc4c(-c5ccccc5)noc4C)C3=O)CC2)n1` [Example 23, 9-(4,6-dimethylpyrimidin-2-yl)-2-((5-methyl-3-phenylisoxazol-4-yl)methyl)-2,9-diazaspiro[5.5]undecan-1-one], the Ki at human orexin 1 receptors was 2880 nM; at human orexin 2 receptors it was 115 nM.
Consider `Cc1ccnc(N2CCC3(CCCN(Cc4ccccc4-n4nccn4)C3=O)CC2)n1` [Example 24, 2-(2-(2H-1,2,3-triazol-2-yl)benzyl)-9-(4-methylpyrimidin-2-yl)-2,9-diazaspiro[5.5]undecan-1-one], for which the inhibition at 10 µM at human orexin 1 receptors is below 10%. The Ki on human orexin 2 receptors was determined as 509 nM.
For the molecule `N#Cc1cccc(N2CCC3(CCCN(Cc4ccccc4-n4nccn4)C3=O)CC2)n1` [Example 26, 6-(2-(2-(2H-1,2,3-triazol-2-yl)benzyl)-1-oxo-2,9-diazaspiro[5.5]undecan-9-yl)picolinonitrile], on human orexin 1 receptors, the inhibition at 10 µM is below 10%.
`N#Cc1ccnc(N2CCC3(CCCN(Cc4ccccc4-n4nccn4)C3=O)CC2)c1` [Example 27, 2-(2-(2-(2H-1,2,3-triazol-2-yl)benzyl)-1-oxo-2,9-diazaspiro[5.5]undecan-9-yl)isonicotinonitrile]: on human orexin 1 receptors, the inhibition at 10 µM is below 10%. Further, the Ki on human orexin 2 receptors turned out to be 645 nM.
With `Cc1ccnc(N2CCC3(CCCN(Cc4cccc(-c5ncccn5)c4)C3=O)CC2)n1` [Example 30, 9-(4-methylpyrimidin-2-yl)-2-(3-(pyrmidin-2-yl)benzyl)-2,9-diazaspiro[5.5]undecan-1-one], the inhibition at 10 µM at human orexin 1 receptors came to 48%. Also, the inhibition constant Ki on human orexin 2 receptors is 686 nM.
Consider `CN(C)c1ccnc(N2CCC3(CCCN(Cc4c[nH]c5ccccc45)C3=O)CC2)n1` [Example 46, 2-((1H-indol-3-yl)methyl)-9-(4-(dimethylamino)pyrimidin-2-yl)-2,9-diazaspiro[5.5]undecan-1-one], for which the inhibition at 10 µM at human orexin 1 receptors stood at 25%. For the same molecule, the Ki on human orexin 2 receptors came to 143 nM.
On to `COc1nccc(N2CCC3(CCCN(Cc4c[nH]c5ccccc45)C3=O)CC2)n1` [Example 47, 2-((1H-indol-3-yl)methyl)-9-(2-methoxypyrimidin-4-yl)-2,9-diazaspiro[5.5]undecan-1-one], for which the inhibition at 10 µM at human orexin 1 receptors was found to be 25%. At human orexin 2 receptors, the Ki was 630 nM.
As to `O=C1N(Cc2c[nH]c3ccccc23)CCCC12CCN(c1ccnc(Cl)n1)CC2` [Example 48, 2-((1H-indol-3-yl)methyl)-9-(2-chloropyrimidin-4-yl)-2,9-diazaspiro[5.5]undecan-1-one], the Ki on human orexin 1 receptors was found to be 3150 nM; on human orexin 2 receptors, 152 nM.
As for `O=C1N(Cc2c[nH]c3ccccc23)CCCC12CCN(c1nccc(C(F)(F)F)n1)CC2` [Example 49, 2-((1H-indol-3-yl)methyl)-9-(4-(trifluoromethyl)pyrimidin-2-yl)-2,9-diazaspiro[5.5]undecan-1-one], the Ki on human orexin 1 receptors was found to be 2180 nM; on human orexin 2 receptors, 190 nM.
For the molecule `CC(C)c1ccnc(N2CCC3(CCCN(Cc4c[nH]c5ccccc45)C3=O)CC2)n1` [Example 50, 2-((1H-indol-3-yl)methyl)-9-(4-isopropylpyrimidin-2-yl)-2,9-diazaspiro[5.5]undecan-1-one], the Ki stood at 1860 nM on human orexin 1 receptors and 223 nM at human orexin 2 receptors.
With `CCOc1ccnc(N2CCC3(CCCN(Cc4c[nH]c5ccccc45)C3=O)CC2)n1` [Example 52, 2-((1H-indol-3-yl)methyl)-9-(4-ethoxypyrimidin-2-yl)-2,9-diazaspiro[5.5]undecan-1-one], the Ki amounted to 1060 nM at human orexin 1 receptors and 125 nM on human orexin 2 receptors.
With `Cn1cc(CN2CCCC3(CCN(c4cncc(Cl)n4)CC3)C2=O)c2ccccc21` [Example 53, 9-(6-chloropyrazin-2-yl)-2-((1-methyl-1H-indol-3-yl)methyl)-2,9-diazaspiro[5.5]undecan-1-one], the Ki at human orexin 1 receptors was found to be 2740 nM; at human orexin 2 receptors, 420 nM.
In the case of `CCn1cc(CN2CCCC3(CCN(c4nc(C)cc(C)n4)CC3)C2=O)c2ccccc21` [Example 54, 9-(4,6-dimethylpyrimidin-2-yl)-2-((1-ethyl-1H-indol-3-yl)methyl)-2,9-diazaspiro[5.5]undecan-1-one], the Ki at human orexin 1 receptors stood at 3150 nM; at human orexin 2 receptors, 149 nM.
`COc1cc(N2CCC3(CCCN(Cc4c[nH]c5ccccc45)C3=O)CC2)ccn1` [Example 61, 2-((1H-indol-3-yl)methyl)-9-(2-methoxypyridin-4-yl)-2,9-diazaspiro[5.5]undecan-1-one]: the Ki on human orexin 1 receptors worked out at 3840 nM.
Regarding `O=C1N(Cc2c[nH]c3ccccc23)CCCC12CCN(c1cccc(O)n1)CC2` [Example 84, 2-((1H-indol-3-yl)methyl)-9-(6-hydroxypyridin-2-yl)-2,9-diazaspiro[5.5]undecan-1-one], at human orexin 1 receptors, the inhibition at 10 µM was found to be 24%.
Same read-out and setting: as for `Cc1ccnc(N2CCC3(CCCC(=O)N3Cc3ccc(-c4ncccn4)cc3)CC2)n1` [Example 90, 9-(4-methylpyrimidin-2-yl)-1-(4-(pyrimidin-2-yl)benzyl)-1,9-diazaspiro[5.5]undecan-2-one], the figure is below 10%; as for `Cc1ccnc(N2CCC3(CCCC(=O)N3Cc3cccc(-n4nccn4)c3)CC2)n1` [Example 94, 1-(3-(2H-1,2,3-triazol-2-yl)benzyl)-9-(4-methylpyrimidin-2-yl)-1,9-diazaspiro[5.5]undecan-2-one], 36%.
Same read-out and setting: the value for `Cc1ccnc(N2CCC3(CCCC(=O)N3Cc3nnc(-c4ccccc4)o3)CC2)n1` [Example 95, 9-(4-methylpyrimidin-2-yl)-1-((5-phenyl-1,3,4-oxadiazol-2-yl)methyl)-1,9-diazaspiro[5.5]undecan-2-one] was 10%; that for `Cc1ccnc(N2CCC3(CCCC(=O)N3Cc3cccc(-c4nc(C)no4)c3)CC2)n1` [Example 97, 1-(3-(3-methyl-1,2,4-oxadiazol-5-yl)benzyl)-9-(4-methylpyrimidin-2-yl)-1,9-diazaspiro[5.5]undecan-2-one] was 15%; that for `Cc1ccnc(N2CCC3(CCCC(=O)N3Cc3cccc(N4CCCC4)n3)CC2)n1` [Example 98, 9-(4-methylpyrimidin-2-yl)-1-((6-(pyrrolidin-1-yl)pyridin-2-yl)methyl)-1,9-diazaspiro[5.5]undecan-2-one] was below 10%.
Regarding `Cc1cc(N2CCC3(CCCN(Cc4c[nH]c5ccccc45)C3=O)CC2)ccn1` [Example 100, 2-((1H-indol-3-yl)methyl)-9-(2-methylpyridin-4-yl)-2,9-diazaspiro[5.5]undecan-1-one], the inhibition at 10 µM at human orexin 1 receptors was below 10%.
Regarding `Cc1ccnc(N2CCC3(CCCC(=O)N3Cc3cc(C#N)ccc3F)CC2)n1` [Example 101, 4-fluoro-3-((9-(4-methylpyrimidin-2-yl)-2-oxo-1,9-diazaspiro[5.5]undecan-1-yl)methyl)benzonitrile], on human orexin 1 receptors, the inhibition at 10 µM is below 10%.
